The assay deals with hDGAT2 (Homo sapiens (Human), UniProt Q96PD7). Description: DGAT2 Enzymatic Activity Assay. Format: biochemical. Particulars: hDGAT2 Sf-9 membrane prep; 25 μM diolein, 10 μM oleoyl-CoA; triolein product by LC/MS/MS; read-out: IC50 values for inhibition of DGAT2. The essentials: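 Membranes from Sf-9 cells expressing untagged hDGAT2 (10 ng/μL) incubated at room temperature with 25 μM diolein and 10 μM oleoyl-CoA in 100 mM Tris pH 7.0, 20 mM MgCl2, 5% ethanol. Triolein product quantified by LC/MS/MS against spiked internal standard; IC50 from 4-parameter sigmoidal fit.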
hDGAT2, sequence (Q96PD7 whole entry): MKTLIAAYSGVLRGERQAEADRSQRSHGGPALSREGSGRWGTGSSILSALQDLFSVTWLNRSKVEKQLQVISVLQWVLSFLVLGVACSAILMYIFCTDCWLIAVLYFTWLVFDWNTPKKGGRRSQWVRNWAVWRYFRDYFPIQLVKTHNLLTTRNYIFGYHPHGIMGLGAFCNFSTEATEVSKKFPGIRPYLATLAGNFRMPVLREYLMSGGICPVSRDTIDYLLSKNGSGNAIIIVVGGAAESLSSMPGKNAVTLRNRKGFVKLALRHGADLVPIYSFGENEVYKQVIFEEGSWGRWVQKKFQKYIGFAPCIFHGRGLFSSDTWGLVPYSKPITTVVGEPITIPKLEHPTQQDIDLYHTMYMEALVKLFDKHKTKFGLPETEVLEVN
For `COc1cccc(-c2ccc(CNC(=O)[C@H]3C[C@@H]3c3ccccc3)c3c2CCN(Cc2cc(F)cc(F)c2)C3)c1` (relative stereo) [Example 92, (trans)-N-((2-(3,5-difluorobenzyl)-5-(3 methoxyphenyl)-1,2,3,4-tetrahydroisoquinolin-8-yl)methyl)-2-phenylcyclopropanecarboxamide], the IC50 came to 1140 nM.
The value for `COC(=O)c1cccc(-c2ccc(CNC(=O)C3CC3c3ccccc3)c3c2CCN(C(=O)C2(C(F)(F)F)CC2)C3)c1` (stereo not drawn) [Example 123, methyl 3-(8-((2-phenylcyclopropanecarboxamido)methyl)-2-(1-(trifluoromethyl)cyclopropanecarbonyl)-1,2,3,4-tetrahydroisoquinolin-5-yl)benzoate] was 1320 nM; that for `Cc1noc(C2CC2C(=O)NCc2ccc(-c3cccc(OC(F)(F)F)c3)c3c2CN(CC(=O)NC2CCC2)CC3)n1` (stereo not drawn) [Example 87, N-((2-(2-(cyclobutylamino)-2-oxoethyl)-5-(3-(trifluoromethoxy)phenyl)-1,2,3,4-tetrahydroisoquinolin-8-yl)methyl)-2-(3-methyl-1,2,4-oxadiazol-5-yl)cyclopropanecarboxamide] was 4220 nM; that for `COc1cccc(-c2ccc(CNC(=O)[C@@H]3C[C@H]3c3ccccc3)c3c2CCN(C(=O)c2cc(F)cc(F)c2)C3)c1` (relative stereo) [Example 111, (trans)-N-((2-(3,5-difluorobenzoyl)-5-(3-methoxyphenyl)-1,2,3,4-tetrahydroisoquinolin-8-yl)methyl)-2-phenylcyclopropanecarboxamide] was 971 nM.
The same measure for `COc1cccc(-c2ccc(CNC(=O)[C@@H]3C[C@H]3c3ccccc3)c3c2CCN(C(=O)Nc2ccccn2)C3)c1` (relative stereo) [Example 15, 5-(3-methoxyphenyl)-8-(((trans)-2-phenylcyclopropanecarboxamido)methyl)-N-(pyridin-2-yl)-3,4-dihydroisoquinoline-2(1H)-carboxamide]: 3110 nM; for `Cc1noc2ccc(-c3ccc(CNC(=O)[C@@H]4C[C@H]4c4ccccc4)c4c3CCN(C(=O)NC(C)(C)C)C4)cc12` (relative stereo) [Example 27, N-(tert-butyl)-5-(3-methylbenzo[d]isoxazol-5-yl)-8-(((trans)-2-phenylcyclopropanecarboxamido)methyl)-3,4-dihydroisoquinoline-2(1H)-carboxamide]: 59.8 nM.
The same measure for `CC(C)(C)NC(=O)N1CCc2c(-c3cccc(C(C)(C)O)c3)ccc(CNC(=O)[C@@H]3C[C@H]3c3ccccc3)c2C1` (relative stereo) [Example 52, N-(tert-butyl)-5-(3-(2-hydroxypropan-2-yl)phenyl)-8-(((trans)-2-phenylcyclopropanecarboxamido)methyl)-3,4-dihydroisoquinoline-2(1H)-carboxamide]: 20.2 nM; for `COC(=O)c1cccc(-c2ccc(CNC(=O)C3CC3c3ccccc3)c3c2CCN(C(=O)C2CCC(C)CC2)C3)c1` (stereo not drawn) [Example 137, methyl 3-(2-(4-methylcyclohexanecarbonyl)-8-((2-phenylcyclopropanecarboxamido)methyl)-1,2,3,4-tetrahydroisoquinolin-5-yl)benzoate]: 3340 nM; for `COC(=O)c1cccc(-c2ccc(CNC(=O)C3CC3c3ccccc3)c3c2CCN(C(=O)c2ccc(F)cc2)C3)c1` (stereo not drawn) [Example 141, methyl 3-(2-(4-fluorobenzoyl)-8-((2-phenylcyclopropanecarboxamido)methyl)-1,2,3,4-tetrahydroisoquinolin-5-yl)benzoate]: 279 nM.
For `COc1cccc(-c2ccc(CNC(=O)[C@H]3C[C@@H]3c3ccccc3)c3c2CCN(c2nccc(C(F)(F)F)n2)C3)c1` (relative stereo) [Example 109, (trans)-N-((5-(3-methoxyphenyl)-2-(4-(trifluoromethyl)pyrimidin-2-yl)-1,2,3,4-tetrahydroisoquinolin-8-yl)methyl)-2-phenylcyclopropanecarboxamide], the IC50 was determined as 4040 nM.
The value for `COc1cccc(-c2ccc(CNC(=O)C3CC3c3ccccc3)c3c2CCN(C(=O)CC(C)(C)C)C3)c1` (stereo not drawn) [Example 114, N-((2-(3,3-dimethylbutanoyl)-5-(3-methoxyphenyl)-1,2,3,4-tetrahydroisoquinolin-8-yl)methyl)-2-phenylcyclopropanecarboxamide] was 714 nM; that for `COc1cccc(-c2ccc(CNC(=O)[C@@H]3C[C@H]3c3ccccc3)c3c2CCN(C(=O)C(C)(C)O)C3)c1` (relative stereo) [Example 117, (trans)-N-((2-(2-hydroxy-2-methylpropanoyl)-5-(3-methoxyphenyl)-1,2,3,4-tetrahydroisoquinolin-8-yl)methyl)-2-phenylcyclopropanecarboxamide] was 831 nM.
The value for `Cc1noc([C@@H]2C[C@H]2C(=O)NCc2ccc(-c3cccc(OC(F)(F)F)c3)c3c2CN(Cc2cnccn2)CC3)n1` (relative stereo) [Example 107, (trans)-2-(3-methyl-1,2,4-oxadiazol-5-yl)-N-((2-(pyrazin-2-ylmethyl)-5-(3-(trifluoromethoxy)phenyl)-1,2,3,4-tetrahydroisoquinolin-8-yl)methyl)cyclopropanecarboxamide] was 4770 nM.
For `COc1cccc(-c2ccc(CNC(=O)C3CC3c3ccccc3)c3c2CCN(C(=O)NC2CC(F)(F)C2)C3)c1` (stereo not drawn) [Example 57, N-(3,3-difluorocyclobutyl)-5-(3-methoxyphenyl)-8-((2-phenylcyclopropanecarboxamido)methyl)-3,4-dihydroisoquinoline-2(1H)-carboxamide], the IC50 was 87 nM.
In the case of `COC(=O)c1cccc(-c2ccc(CNC(=O)[C@H]3C[C@@H]3c3ccccc3)c3c2CCN(C(=O)NC2(C)CC2)C3)c1` (relative stereo) [Example 54, methyl 3-(2-((1-methylcyclopropyl)carbamoyl)-8-(((trans)-2-phenylcyclopropanecarboxamido)methyl)-1,2,3,4-tetrahydroisoquinolin-5-yl) benzoate], the IC50 came to 1.13 nM.
With `COC(=O)c1cccc(-c2ccc(CNC(=O)C3CC3c3nc(C)no3)c3c2CCN(C(=O)NC(C)(C)C)C3)c1` (stereo not drawn) [Example 7, methyl 3-(2-(tert-butylcarbamoyl)-8-((2-(3-methyl-1,2,4-oxadiazol-5-yl)cyclopropanecarboxamido)methyl)-1,2,3,4-tetrahydroisoquinolin-5-yl)benzoate], the IC50 amounted to 15.5 nM.
The value for `COC(=O)c1cccc(-c2ccc(CNC(=O)C3CC3c3ccccc3)c3c2CCN(C(=O)c2cnoc2C(C)C)C3)c1` (stereo not drawn) [Example 122, methyl 3-(2-(5-isopropylisoxazole-4-carbonyl)-8-((2-phenylcyclopropanecarboxamido)methyl)-1,2,3,4-tetrahydroisoquinolin-5-yl)benzoate] was 5500 nM.
With `COc1cccc(-c2ccc(CNC(=O)[C@@H]3C[C@H]3c3ccccc3)c3c2CCN(C(=O)N2CCOCC2)C3)c1` (relative stereo) [Example 62, (trans)-N-((5-(3-methoxyphenyl)-2-(morpholine-4-carbonyl)-1,2,3,4-tetrahydroisoquinolin-8-yl)methyl)-2-phenylcyclopropanecarboxamide], the IC50 is 818 nM.
